35 compounds from patent US20090048295A1, “SUBSTITUTED 5,6,7,8-TETRAHYDROQUINOLINE DERIVATIVES, COMPOSITIONS, AND METHODS OF USE THEREOF” (priority 2007, published 2009) can be followed below.

Assay [1] addresses T1, C5a receptor (Homo sapiens, UniProt P21730).
T1 sequence (P21730 1-350): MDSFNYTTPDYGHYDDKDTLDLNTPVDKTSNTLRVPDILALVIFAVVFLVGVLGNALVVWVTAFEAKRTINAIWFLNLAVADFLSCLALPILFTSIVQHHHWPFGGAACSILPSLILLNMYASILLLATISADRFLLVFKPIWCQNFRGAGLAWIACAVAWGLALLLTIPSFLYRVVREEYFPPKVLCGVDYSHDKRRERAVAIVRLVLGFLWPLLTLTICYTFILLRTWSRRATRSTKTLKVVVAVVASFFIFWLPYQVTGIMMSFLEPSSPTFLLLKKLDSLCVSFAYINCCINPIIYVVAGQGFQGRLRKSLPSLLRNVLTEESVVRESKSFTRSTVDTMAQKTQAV
As to the kind of experiment: Calcium Mobilization Assay (C5a-induced Ca2+ mobilization, FLIPR, differentiated U937 cells). To be noted: […] recombinant human C5a, 20 min pre-incubation, multiple values = duplicate experiments, read-out: C5a Induced Ca Mobil. Average IC50. Format: cell-based. Further details: endogenous in cells; host or cells: U937 cells differentiated with dibutyryl cAMP. The procedure:
U937 cells (human monocytic cell line) were cultured in RPMI-1640 medium supplemented with 10% fetal bovine serum, 10 mM HEPES, 0.11 g/L pyruvate, 0.29 g/L L-glutamine, 100 IU/mL penicillin G and […] streptomycin. Dibutyryl cAMP (1 mM) was added to induce differentiation 2 or 3 days prior to loading the cells with 4.4 μM Fluo-3AM (Molecular Probes) for 30 min at 37° C. in RPMI medium containing 20 mM HEPES, 0.1% bovine serum albumin (BSA) and 5 mM probenecid. After washing, cells were dissolved at 2×10^6 cells/ml in HBSS buffer (Invitrogen 14190-094) supplemented with 10 mM HEPES, 2.5 mM probenecid and 0.1% BSA (pH=7.4), and sedimented by 1 min centrifugation (1500 rpm) in black 96-well plates (Costar) (200,000 cells/well). A 100× concentration range of test compounds was prepared in DMSO and further diluted in HBSS buffer. U937 cells were pre-incubated with compound for 20 minutes at room temperature (1% DMSO), before recombinant human C5a (Sigma) was added to the cells (1.5 nM). Changes in intracellular free Ca^2+ concentration were measured using the Fluorescent Imaging Plate Reader (FLIPR, Molecular Devices). Fluorescence was recorded every second from 10 seconds before the addition of C5a until 2 min after the addition. The maximal fluorescence obtained during this time frame was used for further calculations.

Assay [2] addresses T1, C5a receptor. As to the kind of experiment: [125I]-C5a Radioligand Binding Assay (competition binding, differentiated U937 cells).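 As to all read-outs here: cells preincubated with compound 30 min at room temperature, then 60 min at 4 °C with radioligand, bound counts read by scintillation, nonspecific binding defined with 100 nM C5a.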 To be noted: [125I]-C5a 0.05 nM, U937 cells, multiple values = duplicate experiments; for [125I]-C5a Binding % Inhibition 1 μM: test compound 1 μM; for inhibition at 1 µM: read-out: [125I]-C5a Binding % Inhibition 1 μM, test compound 1 μM; for inhibition at 10 µM: read-out: [125I]-C5a Binding % Inhibition 10 μM, test compound 10 μM; for [125I]-C5a Binding % Inhibition 10 μM: test compound 10 μM.
Protocol: Competition binding assays for C5a receptors were performed by incubation of differentiated U937 cells (200,000 cells/well), test compound (1% DMSO) and [^125I]-C5a (Bolton & Hunter labeled, Perkin Elmer, specific activity=2200 Ci/mmol, 0.05 nM final) in binding buffer consisting of 50 mM HEPES, 5 mM MgCl2, 1 mM CaCl2, 0.5% protease-free BSA, 0.02% NaN3, pH 7.4. 100× solutions of test compounds were prepared in DMSO and further diluted in binding buffer. Non-specific binding was defined in wells containing 100 nM recombinant C5a. Cells and compound were pre-incubated for 30 min at RT. After addition of the radioligand, further incubation for 60 min occurred at 4° C. Cells were harvested on GF/B filters—presoaked in 0.5% polyethylenimine, followed by washing with binding buffer containing 500 mM NaCl, pH 7.4. Filter bound radioactivity was determined by liquid scintillation counting. IC50 and Ki values were calculated using non-linear regression in Graphpad Prism. Ki is calculated using the equation of Cheng and Prusoff (Biochem. Pharmacol. 1973, 22: 3099-3108)

“And” between values parts separate entries of the source, which are not always exact repeats. Equal entries are not always repeated.

For `CCc1cccc(CC)c1-c1cc(OC)c2c(n1)CCCC2N1CCCc2ccccc21` (stereo not shown) [Compound 65], the IC50 in assay [1] worked out at 2.43 µM. Besides, the “[125I]-C5a Binding % Inhibition 1 μM” value in assay [2] was −7% and 1%.
As to `CCc1cccc(CC)c1-c1cc(OC)c2c(n1)CCCC2Nc1cc(-c2ccccc2)ccc1C` (stereo not shown) [Compound 66], in assay [1], the IC50 came to 2.46 µM. In assay [2], the inhibition at 1 µM was 83% and the inhibition at 10 µM came out at 88%.
Regarding `CCc1cccc(CC)c1-c1cc(OC)c2c(n1)CCCC2N(C)c1cc(Cl)ccc1C` (stereo not shown) [Compound 67], the IC50 in assay [1] stood at 2.56 µM. In addition, in assay [2], the inhibition at 1 µM was 82% and the inhibition at 10 µM was 86%.
For the compound `CCc1cccc(CC)c1-c1cc(OC)c2c(n1)CCCC2N(C)c1cc(OC)ccc1OC` (stereo not shown) [Compound 68], the IC50 in assay [1] was determined as 2.57 µM. For the same compound, in assay [2], the inhibition at 1 µM came to 66% and the inhibition at 10 µM worked out at 76%.
In the same order, the values of `COc1ccc(C)c(N(C)C2CCCc3nc(-c4c(C)cccc4C)cc(OC)c32)c1` (stereo not shown) [Compound 69] are 3.22 µM, 76% and 85%.
In the same order, the values of `CCc1cccc(CC)c1-c1cc(OC)c2c(n1)CCCC2N(C)c1cccc2c1CCC2` (stereo not shown) [Compound 72] are 3.79 µM, 86% and 85%.
Consider `CCc1cccc(CC)c1-c1cc(OC)c2c(n1)CCCC2Nc1ccccc1C#N` (stereo not shown) [Compound 74], for which the IC50 in assay [1] was determined as 4.9 µM. Also, in assay [2], the inhibition at 1 µM turned out to be 19% and the inhibition at 10 µM was 52%.
On to `CCN(c1cccc(C)c1C)C1CCCc2nc(-c3c(C)cccc3C)cc(OC)c21` (stereo not shown) [Compound 76], for which the half-inhibitory concentration (IC50) in assay [1] is 5.13 µM. For the same compound, in assay [2], the inhibition at 1 µM worked out at 83% and the inhibition at 10 µM was found to be 85%.
Regarding `CCc1cccc(CC)c1-c1cc(OC)c2c(n1)CCC[C@@H]2N(C)[C@H]1CCCc2ccccc21` [Compound 77], the IC50 in assay [1] was found to be 5.5 µM. For the same compound, the “[125I]-C5a Binding % Inhibition 10 μM” value in assay [2] worked out at 72%.
Turning to `CCc1cccc(CC)c1-c1cc(OC)c2c(n1)CCCC2N(C(C)=O)c1cccc2ccccc12` (stereo not shown) [Compound 79], the IC50 in assay [1] worked out at 6.17 µM. Besides, in assay [2], the inhibition at 1 µM came out at 49% and the inhibition at 10 µM was determined as 78%.
In the same order, the values of `CCc1cccc(CC)c1-c1cc(OC)c2c(n1)CCCC2N(C)c1ccc(OC)cc1C` (stereo not shown) [Compound 80] are 6.19 µM, 80% and 81%.
For `CCc1cccc(CC)c1-c1cc(OC)c2c(n1)CCCC2Nc1cccc(OC)c1` (stereo not shown) [Compound 81], in that order: 7.41 µM, 55% and 71%.
As for `CCc1cccc(CC)c1-c1cc(OC)c2c(n1)CCCC2N(C)C1CCCc2ccccc21` (stereo not shown) [Compound 83], the IC50 in assay [1] was found to be 8.13 µM. In addition, in assay [2], the “[125I]-C5a Binding % Inhibition 1 μM” value stood at 51% and the “[125I]-C5a Binding % Inhibition 10 μM” value amounted to 71%.
Consider `CCc1cccc(CC)c1-c1cc(OC)c2c(n1)CCCC2OCc1ccccc1` (stereo not shown) [Compound 86], for which, in assay [1], the IC50 is > 10 µM. In assay [2], the inhibition at 1 µM worked out at 49% and the inhibition at 10 µM was 64%.
As for `CCc1cccc(CC)c1-c1cc(OC)c2c(n1)CCCC2N(C)CCc1ccccc1` (stereo not shown) [Compound 87], the IC50 in assay [1] is > 10 µM. Moreover, in assay [2], the “[125I]-C5a Binding % Inhibition 1 μM” value is 17% and the “[125I]-C5a Binding % Inhibition 10 μM” value is listed as 51%.
Consider `CCc1cccc(CC)c1-c1cc(OC)c2c(n1)CCCC2NC1Cc2ccccc2C1` (stereo not shown) [Compound 88], for which the IC50 in assay [1] is > 10 µM. Besides, in assay [2], the inhibition at 1 µM is 25% and the inhibition at 10 µM was found to be 51%.
As to `CCc1cccc(CC)c1-c1cc(OC)c2c(n1)CCCC2N(C)CCCc1ccccc1` (stereo not shown) [Compound 91], in assay [1], the IC50 is > 10 µM. In addition, in assay [2], the “[125I]-C5a Binding % Inhibition 1 μM” value is 20% and the “[125I]-C5a Binding % Inhibition 10 μM” value was 60%.
Regarding `CCc1cccc(CC)c1-c1cc(OC)c2c(n1)CCCC2N(C)Cc1ccco1` (stereo not shown) [Compound 92], in assay [1], the IC50 is > 10 µM. For the same compound, in assay [2], the inhibition at 1 µM is 24% and the inhibition at 10 µM was 62%.
For the compound `CCc1cccc(CC)c1-c1cc(OC)c2c(n1)CCCC2N1CCc2ccccc21` (stereo not shown) [Compound 93], the IC50 in assay [1] was > 10 µM. In assay [2], the inhibition at 1 µM is 68% and the inhibition at 10 µM was 80%.
Take `CCc1cccc(CC)c1-c1cc(OC)c2c(n1)CCCC2N(C)Cc1cccs1` (stereo not shown) [Compound 94]: the IC50 in assay [1] is > 10 µM. Further, in assay [2], the inhibition at 1 µM worked out at 56% and the inhibition at 10 µM came out at 77%.
In the same order, the values of `CCc1cccc(CC)c1-c1cc(OC)c2c(n1)CCCC2N1CCc2ccc(C#N)cc2C1` (stereo not shown) [Compound 96] are > 10 µM, 77% and 87%.
With `CCc1cccc(CC)c1-c1cc(OC)c2c(n1)CCCC2N1CCc2ccc(C(=O)OC)cc2C1` (stereo not shown) [Compound 97], the IC50 in assay [1] is > 10 µM. Moreover, in assay [2], the inhibition at 1 µM is 47% and the inhibition at 10 µM came to 59%.
On to `CCc1cccc(CC)c1-c1cc(OC)c2c(n1)CCCC2N1CCc2cc(C(=O)OC)ccc2C1` (stereo not shown) [Compound 98], for which the IC50 in assay [1] is > 10 µM. In assay [2], the inhibition at 1 µM worked out at 43% and the inhibition at 10 µM amounted to 70%.
Regarding `CCc1cccc(CC)c1-c1cc(OC)c2c(n1)CCCC2N1CCc2c(cccc2C(=O)OC)C1` (stereo not shown) [Compound 99], the IC50 in assay [1] was > 10 µM. In assay [2], the inhibition at 1 µM amounted to 59% and the inhibition at 10 µM came out at 76%.
In the case of `CCc1cccc(CC)c1-c1cc(OC)c2c(n1)CCCC2N1CCc2cc(C(F)(F)F)ccc2C1` (stereo not shown) [Compound 102], the IC50 in assay [1] was > 10 µM. Besides, in assay [2], the inhibition at 1 µM is 74% and the inhibition at 10 µM amounted to 80%.
For `CCc1cccc(CC)c1-c1cc(OC)c2c(n1)CCCC2N(C)c1cccc2ccccc12` (stereo not shown) [Compound 104], the IC50 in assay [1] was > 10 µM. Moreover, in assay [2], the inhibition at 1 µM was found to be 56% and the inhibition at 10 µM came out at 64%.
Consider `CCc1cccc(CC)c1-c1cc(OC)c2c(n1)CCCC2Oc1cccc2ccccc12` (stereo not shown) [Compound 105], for which the half-maximal inhibitory concentration (IC50) in assay [1] is > 10 µM. In assay [2], the inhibition at 1 µM stood at 55% and the inhibition at 10 µM was found to be 70%.
For the compound `COc1cc(-c2c(C)cccc2C)nc2c1C(N(C)c1cc(C)ccc1C(C)C)CCC2` (stereo not shown) [Compound 110], the IC50 in assay [1] is > 10 µM. Also, in assay [2], the inhibition at 1 µM turned out to be 77% and the inhibition at 10 µM was found to be 82%.
On to `COc1cc(-c2c(C)cccc2C)nc2c1C(Oc1cc(C(C)C)ccc1C)CCC2` (stereo not shown) [Compound 111], for which the IC50 in assay [1] is > 10 µM. Besides, in assay [2], the inhibition at 1 µM stood at 82% and the inhibition at 10 µM was 85%.
As for `COc1cc(-c2c(C)cccc2C)nc2c1C(N(C)c1cccc3c1CCN(C)C3)CCC2` (stereo not shown) [Compound 112], the IC50 in assay [1] is > 10 µM. Besides, in assay [2], the inhibition at 1 µM is 36% and the inhibition at 10 µM was 70%.
In the case of `COc1cc(-c2c(C)cccc2C)nc2c1C(N(C)c1cccc3[nH]ccc13)CCC2` (stereo not shown) [Compound 113], in assay [1], the IC50 was > 10 µM. In assay [2], the “[125I]-C5a Binding % Inhibition 1 μM” value amounted to 33% and the “[125I]-C5a Binding % Inhibition 10 μM” value was 54%.
Turning to `COc1cc(-c2c(C)cccc2C)nc2c1C(N(C)c1cccc(Cl)c1C)CCC2` (stereo not shown) [Compound 115], in assay [1], the IC50 is > 10 µM. For the same compound, in assay [2], the inhibition at 1 µM came to 75% and the inhibition at 10 µM was found to be 80%.
Regarding `COc1ccc2cccc(N(C)C3CCCc4nc(-c5c(C)cccc5C)cc(OC)c43)c2c1` (stereo not shown) [Compound 116], the IC50 in assay [1] was > 10 µM. Besides, in assay [2], the inhibition at 1 µM was 87% and the inhibition at 10 µM is 86%.
Consider `COc1cccc(N(C)C2CCCc3nc(-c4c(C)cccc4C)cc(OC)c32)c1C` (stereo not shown) [Compound 117], for which, in assay [1], the concentration for half-maximal inhibition (IC50) was > 10 µM. Moreover, in assay [2], the “[125I]-C5a Binding % Inhibition 1 μM” value is recorded as 86% and the “[125I]-C5a Binding % Inhibition 10 μM” value is recorded as 85%.
As to `CCc1cccc(CC)c1-c1cc(OC)c2c(n1)CCCC2Nc1c(C)ccc2ccccc12` (stereo not shown) [Compound 119], the IC50 in assay [1] was > 10 µM. Moreover, in assay [2], the inhibition at 1 µM turned out to be 64% and the inhibition at 10 µM was found to be 74%.
